Results reported in patent US6586006B2, “Solid delivery systems for controlled release of molecules incorporated therein and methods of making same” (Elan Drug Delivery Limited, priority 1994, dated 2003).

Experiments:
Type in all cases: physicochemical
[1] = Glass transition temperature (Tg) by thermal analysis (DSC)
Excerpt: In general, the tendency to crystallize, from a cooling melt or with reducing solvent, is low. Both devitrification and the fluidity of the melt at temperatures close to Tg, can be controlled by modifiers such as other derivative sugars and certain organic actives. The following two tables, generated as described in the Examples presented below, provide Tg and melting temperature data for a variety of HDCs suitable for use, either alone, or in a composite glass, herein.
Dissolution of synthetic corticosteroid XPDO (described below) into a TOAC melt and quenching to form the vitreous solid dose delivery system was achieved. By looking at the release of MB9 into aqueous solution, these experiments tested the compatibility of the steroid within the glass, subsequent recovery of the steroid and studied the effect that XPDO has on the properties of the delivery system formed looking at the release of MB9 into aqueous solution. TOAC (3.21 g) was pre-melted at 150° C., before being quenched to glass. The glass was finely ground with XPDO (0.15 g) before being remelted. The clear melt was again quenched to yield the composite HDC/active glass. Thermal analysis was carried out on a Rheometric Scientific Differential Scanning Calorimeter (DSC) at a heating rate of 10°/min under a nitrogen atmosphere. The following samples were prepared:
Studies were performed using the synthetic corticosteroid XPDO dissolved in DCM. The solution was spray dried in a Buchi B-191 spray drier, using an inlet temperature of 40° C. […] XPDO was incorporated at 20 wt %. The powder was completely amorphous as confirmed by thermal analysis (Tg=46° C.).

[2] = Water resistance and dye release of carboxylate, HDC or plastic coated/coformulated systems
Method: These particles were coated by adding them to a saturated solution of zinc palmitate (ZnC16) in toluene and cooling from 60° C. to 30° C. This deposited a layer of ZnC16 on the particles which were then filtered under vacuum to remove the excess ZnC16, washed with acetone and air-dried.
A fine amorphous film (100-200 μm thickness) was formed by casting on silicate glass slides and evaporating off the solvent in a warm air-stream.
Amorphous films were also formed from calcium neodecanoate dissolved in chloroform (0.5 g/10 ml) as described above.
Films of glucose glass incorporating 1 wt % MB9 were formulated by quenching from the melt. These films were coated with thin (100 μm thickness) amorphous metal carboxylate films by evaporation of solution of the carboxylate in chloroform (0.5 g/10 ml). The metal carboxylates used were aluminum hexanoate and octanoate, calcium neodecanoate and magnesium isostearate and neodecanoate. Dissolution of the films was monitored by release of dye into distilled water.

[3] = Weight loss and dye release of glucose pentaacetate glass discs in water
Method: Another glass disc of similar dimensions was prepared from α-D-glucose pentaacetate and placed in 1 l of water, which was replaced daily. After 7 days, the glass had lost 20% of its original weight. The release rate of the dye was higher in the first day as the release happened mainly from the surface of the glass disc.

[4] = Resistance of glasses to devitrification on exposure to relative humidity
Method: Glasses were made by evaporating DCM on a hotplate set at 65° C. from a 25% solutions of TOAC (50% solutions often deposited crystals in the pipette tip). Drying was carried out for 2 hr to be certain of complete dryness. Uniform glasses were produced by using an Eppendorf-type pipette to deliver 100 μl to a slide recently placed on the hotplate and then removing about 50 μl by using the clear/expel volume of the pipette.
XPDO was therefore incorporated into a TOAC glass by dissolving both crystalline TOAC and XPDO in DCM and evaporating the solvent at 70° C. on a hotplate. XPDO was used in proportions of 10% and 20% of total solids in the final TOAC glass.
The resulting glasses were tested for their utility as controlled release matrices in two ways. First, they were assessed for their ability to resist devitrification on exposure to high RH at RT. Second, they were immersed in water or phosphate-buffered saline (PBS) to study their solubility and rate of erosion by surface recrystallization.

[5] = Phycoerythrin fluorescence (functional activity) after solvents, heat or processing
Method: Glasses were formed by drying 20% solutions of either trehalose, lactitol, palatinit or GPS, containing MWPB and 1 mg/ml of the fluorescent algal protein phycoerythrin under vacuum (80 mTorr) for 16 hrs. The glasses were ground in a domestic coffee mill to yield a coarse powder which was used to fill the spinning head of a Kando K1 Kandy Floss cotton candy machine (GB Patent No. 1533012). The motor was then switched on and the powdered sugar glass heated at element settings between 5 and 9. Residence time in the spinning head was 2-10 min and a continuous process was maintained by constantly topping up the head.
A 400 μg/ml phycoerythrin solution was freeze-dried in a Labconco freeze-drier with or without 20% trehalose. The dried protein powder was exposed to a number of organic solvents for 72 hrs.
A 400 μg/ml phycoerythrin solution was freeze-dried in the FTS drier with or without 20% trehalose. […]

[6] = Enzyme activity after exposure to acetone, dried with or without trehalose; details: dried with 50% trehalose versus without, FIGS. 5A and 5B
Method: A 0.1 mg/ml horseradish peroxidase solution or a 1 mg/ml alkaline phosphatase/4 mg/ml bovine serum albumin solution was dried in an FTS Systems freeze drier with or without 50% trehalose. The drier was used as a vacuum drier and the mixtures dried without freezing. Four times the volume of solvent was added and the solution was allowed to evaporate to dryness. The contents were redissolved in 5 milliliters of water, and enzyme activity was assessed, in serial dilution, by commercial ‘kit’ reagents.

[7] = Controlled release of encapsulated MB9 dye from HDC glass beads/discs; details: FIG. 11
Method: In the following experiments, the delivery system was preformulated, whether as a single material, or as a mixed composition. This was carried out by intimately grinding the component HDCs together, followed by careful, controlled melting in a furnace, between 120-140° C. and with normal atmosphere to form melts. The melts were quenched to glass by pouring over a brass block. This glass was then finely ground.
MB9 dye (1 or 5 wt %) was mixed with the ground glass prior to re-melting at 140° C. The melt was quenched to form small glass beads (2.5 mm diameter) which were used in controlled release experiments.
Controlled release of encapsulated dye was monitored by suspending three such beads in 25 or 50 ml of deionized water or PBS solution at ambient temperatures (27-30° C.) or at 37° C., as indicated. The media were undisturbed, except for periodic stirring and were replaced at set intervals with fresh media (generally at 72 hr intervals). Both single HDC glasses and composite HDC glasses were formed. […] The use of other HDCs as glass modifiers in the composite HDC formulations enable the tailoring of the glasses formed to yield the release characteristics desired.
In FIG. 8, the results were obtained from TOAC glass discs (6 mm×2.5 mm) with MB9 dye evenly dispersed therein at 2 wt %. Release was controlled at 25° C. with gentle stirring and media changes at regular intervals. Note the linear release of MB9 dye over a 55 day period. The results presented in FIG. 8 indicate that a pure HDC vitreous delivery vehicle system gives zero-order release rates of guest substances. The results presented in FIGS. 9-14 show variation on release rates by changing the ratios of different HDCs in the delivery systems, changing the carbohydrate backbone length and by changing the nature of the derivative on the carbohydrate backbone. In each instance it is clear that the HDC delivery systems allow a wide range of release rates that can be tailored to the guest substance and the delivery thereof.

[8] = freeze-dried powder in pyridine

Compound: CCCCCCCCO[C@@H]1O[C@H](COC(C)=O)[C@@H](OC(C)=O)[C@H](OC(C)=O)[C@H]1OC(C)=O [OGTA, 1-0-Octyl-β-D-glucose tetraacetate]
- Tg/° C. ([1]; single HDC glasses (Table 1)): −10 °C

Compound: zinc palmitate [ZnC16]
- wetting of coated powder in water ([2]; spray-dried trehalose/calcium lactate/MB9 particles coated with ZnC16): remained unwetted in water for at least three days

Compound: CC(=O)OC[C@H]1O[C@@H](OC(C)=O)[C@H](OC(C)=O)[C@@H](OC(C)=O)[C@@H]1OC(C)=O [β-GPAC, β-glucose pentaacetate]
- Tg/° C. ([1]; single HDC glasses (Table 1)): 17 °C
- solubility of glass in water [3]: poorly soluble in water
- loss of original weight ([3]; glass disc 20 mm diameter, 2.5 mm thick, flowing water, 10 days): about 33%

Compound: CC(=O)OC[C@H]1O[C@@](COC(C)=O)(O[C@H]2O[C@H](COC(C)=O)[C@@H](OC(C)=O)[C@H](OC(C)=O)[C@H]2OC(C)=O)[C@@H](OC(C)=O)[C@@H]1OC(C)=O [SOAC, sucrose octaacetate]
- Tg/° C. ([1]; single HDC glasses (Table 1)): 25 °C

Compound: calcium neodecanoate
- dye release relative to film dissolution ([2]; film with MB9 in distilled water, 24 hr, Ca2+ by atomic adsorption spectroscopy): followed the dissolution of the films

Compound: magnesium isostearate
- delay of dye release ([2]; glucose glass film with 1 wt % MB9 coated with 100 μm metal carboxylate film, distilled water): 10 days

Compound: Aluminum hexanoate
- devitrification of film during dye release ([2]; 100-200 μm film, 1 wt % MB9, distilled water, 5 hr): No devitrification

Compound: OC[C@H]1O[C@H](O[C@H]2O[C@H](CO)[C@@H](O)[C@H](O)[C@H]2O)[C@H](O)[C@@H](O)[C@@H]1O [Trehalose, α-D-glucopyranosyl-α-D-glucopyranoside]
- recrystallization of glass on storage ([4]; trehalose glass from evaporating water from 50% trehalose solution): gradually recrystallized over a period of several weeks

Compound: CCC(=O)OCC1OC(OC2OC(COC(=O)CC)C(OC(=O)CC)C(OC(=O)CC)C2OC(=O)CC)C(OC(=O)CC)C(OC(=O)CC)C1OC(=O)CC (stereo not shown) [TOPR, trehalose octapropanoate]
- Tg/° C. ([1]; single HDC glasses (Table 1)): 3 °C
- devitrification at RH from 75% to 95% ([4]; thin glass films and quenched disks, RT, overnight exposure): very susceptible to devitrification at high RH

Compound: CC(=O)OC[C@H]1O[C@@H](O[C@H]2[C@H](OC(C)=O)[C@@H](OC(C)=O)C(OC(C)=O)O[C@@H]2COC(C)=O)[C@H](OC(C)=O)[C@@H](OC(C)=O)[C@@H]1OC(C)=O (stereo partly shown) [COAC, cellobiose octaacetate]
- Tg/° C. ([1]; single HDC glasses (Table 1)): 65 °C

Compound: phycoerythrin
- fluorescence after exposure to organic solvent ([5]; dimethylsulfoxide, powder solubilized): remained fluorescent
- functional activity after storage at 100° C. ([5]; dried in trehalose, one month): no detectable loss of functional activity
- time by which fluorescence was lost [5, 8]: ≤ 72 h
- time fluorescence remained [5, 8]: 24 to 48 h
- fluorescence after exposure to organic solvent ([5]; freeze-dried with 20% trehalose, acetone, acetonitrile chloroform and methanol, 72 hrs): remained fluorescent
- biological activity as assessed by fluorescence ([5]; in spun sugar glass microneedles): retention of biological activity
- biological functionality by ability to fluoresce ([5]; trehalose glass powder co-melted into carboxylate glass at 95° C.): retained its biological functionality
- fluorescence in carboxylate glass formed by evaporation ([5]; trehalose glass powder in 1:1 sodium octanoate/zinc ethylhexanoate, chloroform): remained fluorescent
- fluorescence in perspex block ([5]; trehalose glass powder in perspex from chloroform): remained fluorescent

Compound: horseradish peroxidase
- resistance of enzyme activity to acetone [6]: more resistant to acetone

Compound: CC(=O)OC[C@H]1O[C@H](OC(C)=O)[C@H](OC(C)=O)[C@@H](OC(C)=O)[C@@H]1OC(C)=O [α-GPAC, α-glucose pentaacetate]
- Tg/° C. ([1]; single HDC glasses (Table 1)): 14 °C
- loss of original weight ([3]; glass disc in 1 l of water replaced daily, after 7 days): 20%
- rate of release of encapsulated Acid Blue dye ([3]; glass disc in water, FIG. 7): quite constant

Compound: alkaline phosphatase
- resistance of enzyme activity to acetone [6]: more resistant to acetone

Compound: CC(=O)OCC1OC(OCC2OC(OC3(COC(C)=O)OC(COC(C)=O)C(OC(C)=O)C3OC(C)=O)C(OC(C)=O)C(OC(C)=O)C2OC(C)=O)C(OC(C)=O)C(OC(C)=O)C1OC(C)=O (stereo not shown) [RUDA, raffinose undecaacetate]
- Tg/° C. ([1]; single HDC glasses (Table 1)): 55 °C
- Tg/° C. ([1]; single and composite HDC glasses, mole ratios of HDCs in glass (Table 2)): 55 °C
- MB9 release profile ([7]; TOAC/RUDA glass spheres into PBS): biphasic release rate
- initial fast release of MB9 dye ([7]; glass spheres into PBS, in 5 days): about 60%
